Results as given in patent US12059429B2, “Hornerin: a novel non-VEGF mediated angiogenic protein expressed in both human and mouse angiogenic endothelial cells and human pancreatic cancer cells” (University of Virginia Patent Foundation, priority 2018, dated 2024).

Legend:
tumor vessels = experiment: Tumor vessel parameters in L3.6pl tumor sections (CD34, ACTA2, RAVE analysis); format: in vivo, mouse
Method: Following completion of the treatment schedule, the mice were killed, cardiac perfused, and the tumors were excised and fixed in formalin overnight. The tumors were paraffin embedded and cut into 5 (thin) or 50 μm (thick) sections. Tumor vessel parameters were evaluated in the following number of tumors for each treatment cohort: (Scr siRNA/ctrl., N=10; Hrnr siRNA/ctrl., N=10; Scr siRNA/AV-951, N=4; Hrnr siRNA/AV-951, N=4).
Tumor sections were deparaffinized, rehydrated, heated in antigen retrieval solution (Vector), blocked for 30 minutes in blocking buffer, and incubated with anti-CD34 antibody (Abcam, ab8158, clone MEC14.7; 1:100) in blocking buffer overnight at 4° C. The sections were then incubated with goat anti-rat FITC secondary antibody (Abcam, ab6840; 1:100) in blocking buffer prior to mounting with Prolong Gold Antifade reagent (Invitrogen). Anti-actin, α-smooth muscle Cy3 antibody (Sigma, C6198, clone 1A4; 1:200) was added to the primary antibody solution if assaying for alpha-smooth muscle actin. To compare hornerin expression in vessels and tumor tissue treated with Hrnr siRNA and Scr siRNA, thin paraffin sections were deparaffinized and stained with anti-CD34 and anti-hornerin antibodies described. Images were collected using a Nikon TE 2000-E2 microscope (Nikon Instruments) equipped with a Melles Griot Argon Laser System (Melles Griot, Carlsbad, CA, USA) and a Nikon D-Eclipse C1 confocal attachment and analyzed by Measurement Tool in Image J. To measure the relative hornerin expression in tumor vessels, three vessel segments per image were isolated and their mean intensity and area were measured and recorded. A weighted mean intensity was calculated to correct for differences in selected area. To measure the relative hornerin expression in tumor tissue, the mean intensity from three square sections (75×75 pixel) of tumor tissue per image was measured and recorded.
Vessel parameters were measured using RAVE software (Seaman et al., 2011). For detection of proliferation and apoptosis, the sections were incubated with the primary antibodies anti-Ki67 (Abcam, ab15580; 1:200) or anti-cleaved caspase 3 (Cell Signaling, 9661; 1:200), respectively, overnight at 4° C. followed by incubation with anti-rabbit AF594 (Abcam, 150080; 1:200).

human hornerin = experiment: In vitro siRNA treatment of human keratinocytes (immunoblot); format: cell-based
Method: For in vitro siRNA-mediated hornerin knockdown, COCA cells and human keratinocytes were plated at a density of 0.1×10^6 cells/well in a six-well cluster plate. The cells were treated the following day with Scr siRNA or Hrnr siRNA (Invitrogen; siRNA sequences identical to those utilized in tumor studies) following an established protocol (see Rachow et al., 2013). Briefly, 100 μL of 10 μM siRNA and 12.5 μL of Lipofectamine 2000 (LF2000; Invitrogen) were added to separate 625 μL OptiMEM (Thermo Fisher Scientific) aliquots. After 5 minutes at RT, the solutions were mixed and incubated for an additional 30 minutes, upon which 5 ml of keratinocyte media were added. The cells were incubated overnight in 3 ml of the siRNA/LF2000/media mixture, replenished the following morning with media containing 2 mM CaCl2) to induce differentiation, and lysed in RIPA buffer 8 hours post-media change. Lysate preparations were subjected to immunoblot using the primary antibodies anti-human hornerin (Abcam; 1:1000), anti-mouse hornerin (Santa Cruz Biotechnology, Dallas, TX, USA, sc164605; 1:200), or anti-beta actin (Cell Signaling; 1:4000), and respective secondary antibodies anti-goat HRP (R&D Systems; 1:10,000), and anti-mouse HRP (R&D Systems; 1:10,000). Uncropped hornerin immunoblots are represented in FIGS. 6A and 6B.

hornerin transcript = experiment: qPCR of hornerin transcript in FACS-sorted CD31+CD45- tumor endothelial cells; format: in vivo, mouse; conditions: vs Scr siRNA, 20 hours after injection
Method: Day 10 tumors were injected with either Scr siRNA or Hrnr siRNA and excised 20 hours later. The tumors were immediately washed in PBS (+Mg/+Ca), minced with scalpels, treated with Collagenase Type II (Worthington Biochemical Corporation, Lakewood, NJ, USA; (2.0 mg/mL) serum-free DMEM, 100 minutes at 37° C.), and filtered through a 40 μm cell strainer. The cell suspension (filtrate) was incubated with the following antibody/dye panel for FACS; anti-CD45 AF488 (1:100; Biolegend, San Diego, CA, USA, 103121, clone 30-F11), anti-CD31 AF647 (1:100; Biolegend, 102415, clone 390), LIVE/DEAD violet stain (1:200; Thermo Fisher). Flow cytometry analysis was completed on the Cyan ADP LX (Beckman Coulter). Compensation and data analysis was completed using FlowJo software (Ashland, OR, USA). […]
RNA was isolated from FACS-sorted CD31^+CD45^− cells according to the manufacturer's protocol (Qiagen mini-prep kit), and concentration and purity were determined using a NanoDrop Spectrophotometer (Thermo Fisher). Complimentary DNA (cDNA) was generated (Qiagen QuantiTect Reverse Transcription Kit) and subjected to pre-amplification (SsoAdvanced PreAmp Supermix, Bio-Rad). […] Melt curve analysis was performed on the hornerin and cyclophilin primer sets prior to data collection and normalized gene expression was determined by the delta delta Ct method.

[1] = L3.6pl tumors, RAVE, vs Scr siRNA
[2] = four-group combination experiment, vs control

Question: “5′-GCAUGGAUCUUGUUGCGGUTT-3′ [Hrnr siRNA]” was tested. Which “increase in ACTA2 coverage of vessels” value (tumor vessels; ACTA2-positive pixels / CD34-positive pixels, vs Scr siRNA) did it give?
Answer: 2.3 fold

Question: What about the “number of vessels per field” value (tumor vessels; CD34-positive vessels per 0.4 mm^2 field, vs Scr siRNA) of the same substance?
Answer: not different

Question: And the “fractal dimension (tortuosity)” value (tumor vessels; [1])?
Answer: reduced

Question: What about the vessel radius (tumor vessels; [1]) of the same substance?
Answer: overall reduction in vessel radius

Question: And the “vessel volume fraction (VVF)” value (tumor vessels; [1])?
Answer: reduced

Question: And the “number of vessels per field” value (tumor vessels; [2])?
Answer: no change in the number of vessels per field

Question: What about the vessel radii (tumor vessels; [2]) of the same substance?
Answer: smaller radii

Question: What about the “loss of hornerin relative to Scr siRNA” value (human hornerin; similar conditions) of the same substance?
Answer: ~10%

Question: And the “hornerin expression level relative to Scr siRNA” value (human hornerin; similar siRNA conditions)?
Answer: ~90%

Question: And the “reduction in hornerin transcript” value (hornerin transcript)?
Answer: 78%
